Test [1] has as its system Aspergillus fumigatus. The test can be described thus: Antifungal activity against Aspergillus fumigatus MTU06002. Format: functional.
The test system of test [2] is Pichia kudriavzevii. The experiment in a line: Antifungal activity against Candida krusei ATCC 20579. Format: functional.
Test [3] deals with Candida albicans. The test can be described thus: Antifungal activity against Candida albicans KB fluconazole resistant strain. Format: functional.
For test [4], the system named is Candida albicans. The test can be described thus: Antifungal activity against Candida albicans ATCC 48130. Format: functional.
In test [5] the test system is Candida albicans. The test can be described thus: In vitro antifungal activity against Candida albicans CY1002. Format: functional, organism-based.
In test [6] the test system is Candida albicans. The experiment in a line: In vitro antifungal activity against Candida albicans CY1002 using 80 percent serum. Format: functional, organism-based.
Test [7] deals with Candida tropicalis. The test can be described thus: Antifungal activity against Candida tropicalis ATCC 13803. Format: functional.
Test [8] has as its system Nakaseomyces glabratus. The test can be described thus: Antifungal activity against Candida glabrata ATCC 2001. Format: functional.
The subject of test [9] is Mus musculus. The experiment in a line: In vivo efficacy against Aspergillus fumigatus CF1083 1E4 conidia/g for pulmonary aspergillosis in mice after iv treatment on day 14. Format: functional. To be noted: 336 h.
The subject of test [10] is Mus musculus. The experiment in a line: In vivo efficacy against Candida albicans CY1002 5E6 cells for systemic candidiasis in mice after iv treatment on day 7. To be noted: CY1002 5E6, iv, 168 h. Format: functional.
The species entered for test [11] is Mus musculus. The experiment in a line: Hepatotoxicity using inclusion-body formation test in hepatocytes of mice. Format: functional, Hepatocyte.
In test [12] the test system is Lomentospora prolificans. The experiment in a line: Antifungal activity against Scedosporium prolificans ATCC 20054. Format: functional.
The test system of test [13] is Scedosporium boydii. The experiment in a line: Antifungal activity against Scedosporium […] IFM40731N. Format: functional.
In test [14] the target is Beta-1,3-glucan synthase (Candida albicans, UniProt O13428). The experiment in a line: In vitro inhibitory activity against Beta glucan synthase.

Structures are written as SMILES. In brackets after ≈: the same amount, converted by molar mass.

Beta-1,3-glucan synthase, sequence (O13428 whole entry): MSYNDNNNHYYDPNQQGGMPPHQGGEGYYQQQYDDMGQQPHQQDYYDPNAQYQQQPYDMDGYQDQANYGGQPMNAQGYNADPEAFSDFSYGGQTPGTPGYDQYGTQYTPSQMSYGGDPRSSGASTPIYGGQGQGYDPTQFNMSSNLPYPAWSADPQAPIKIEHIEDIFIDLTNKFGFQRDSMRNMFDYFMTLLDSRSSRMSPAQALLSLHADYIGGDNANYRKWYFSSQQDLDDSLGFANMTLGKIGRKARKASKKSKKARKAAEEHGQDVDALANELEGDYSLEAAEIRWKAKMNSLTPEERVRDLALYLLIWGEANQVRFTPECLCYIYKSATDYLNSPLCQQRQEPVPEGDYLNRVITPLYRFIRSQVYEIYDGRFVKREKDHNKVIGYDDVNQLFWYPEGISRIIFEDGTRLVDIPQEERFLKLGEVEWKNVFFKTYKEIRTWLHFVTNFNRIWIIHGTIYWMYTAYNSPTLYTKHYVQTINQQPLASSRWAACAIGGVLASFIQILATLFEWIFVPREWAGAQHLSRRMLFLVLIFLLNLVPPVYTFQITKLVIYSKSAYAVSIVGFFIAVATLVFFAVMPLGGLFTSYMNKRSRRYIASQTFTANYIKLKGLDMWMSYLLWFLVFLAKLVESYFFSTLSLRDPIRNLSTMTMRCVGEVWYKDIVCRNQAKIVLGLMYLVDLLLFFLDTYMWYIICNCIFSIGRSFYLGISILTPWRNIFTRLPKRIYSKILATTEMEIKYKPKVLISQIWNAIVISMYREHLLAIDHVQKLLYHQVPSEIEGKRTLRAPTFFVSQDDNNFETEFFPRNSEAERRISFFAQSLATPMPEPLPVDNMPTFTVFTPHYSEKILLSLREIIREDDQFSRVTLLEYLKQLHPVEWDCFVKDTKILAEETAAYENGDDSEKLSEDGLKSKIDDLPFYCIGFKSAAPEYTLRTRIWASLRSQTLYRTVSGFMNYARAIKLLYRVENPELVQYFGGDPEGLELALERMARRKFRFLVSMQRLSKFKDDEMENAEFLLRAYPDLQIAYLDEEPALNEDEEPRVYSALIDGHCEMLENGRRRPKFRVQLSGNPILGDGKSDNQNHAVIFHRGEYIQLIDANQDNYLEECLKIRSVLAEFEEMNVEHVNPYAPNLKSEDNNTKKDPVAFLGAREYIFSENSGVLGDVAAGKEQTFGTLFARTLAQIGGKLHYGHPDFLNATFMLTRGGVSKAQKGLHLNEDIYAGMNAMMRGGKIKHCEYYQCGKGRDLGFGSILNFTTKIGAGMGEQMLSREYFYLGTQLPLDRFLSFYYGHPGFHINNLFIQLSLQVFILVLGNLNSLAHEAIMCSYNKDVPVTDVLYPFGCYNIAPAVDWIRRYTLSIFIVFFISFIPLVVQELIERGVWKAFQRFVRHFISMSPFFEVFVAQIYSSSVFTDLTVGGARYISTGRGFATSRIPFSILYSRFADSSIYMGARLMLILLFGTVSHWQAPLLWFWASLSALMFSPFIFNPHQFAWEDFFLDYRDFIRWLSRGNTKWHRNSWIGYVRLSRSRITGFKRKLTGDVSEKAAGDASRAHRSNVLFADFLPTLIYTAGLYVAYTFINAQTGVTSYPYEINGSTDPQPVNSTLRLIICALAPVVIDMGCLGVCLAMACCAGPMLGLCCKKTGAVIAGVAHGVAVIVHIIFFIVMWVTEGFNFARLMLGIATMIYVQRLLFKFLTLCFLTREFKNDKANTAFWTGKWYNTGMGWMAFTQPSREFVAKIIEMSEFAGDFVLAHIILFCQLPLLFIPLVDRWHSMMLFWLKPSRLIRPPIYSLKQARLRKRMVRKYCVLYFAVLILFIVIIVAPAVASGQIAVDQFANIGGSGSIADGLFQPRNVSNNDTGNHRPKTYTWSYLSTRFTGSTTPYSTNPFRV

In general, MIC refers to the smallest concentration in the dilution series that meets the test's criterion for growth inhibition. A low value points to a more susceptible organism. A word on the IC50: it is the concentration that gives 50% inhibition. A low value points to higher potency. By ED50 is commonly meant the dose at which the effect has come halfway, by size or by number of responders. The low end stands for greater potency, the high end for weaker potency. On to `CCCCCCCCCCCCC[C@@H]1CC(=O)N[C@@H]([C@@H](C)O)C(=O)N[C@H](C)C(=O)N[C@@H](Cc2ccc(O)cc2)C(=O)N[C@@H](C(C)C)C(=O)N2C[C@H](O)C[C@H]2C(=O)N[C@@H]([C@@H](C)O)C(=O)N[C@@H]([C@@H](C)O)C(=O)N2CC[C@H](O)[C@H]2C(=O)N[C@@H]([C@H](O)CC(N)=O)C(=O)NCC(=O)N[C@@H]([C@@H](C)O)C(=O)N[C@@H](CCCN(CCN)C(=O)[C@H](CCCN)N(CCN)CCN)C(=O)O1`, for which the MIC in test [1] came to 0.34 µg/mL (≈ 0.191 µM); in test [2], 0.28 µg/mL (≈ 0.158 µM); in [3], 0.35 µg/mL (≈ 0.197 µM); in test [4], 0.37 µg/mL (≈ 0.208 µM); in test [7] it was 0.62 µg/mL (≈ 0.349 µM); in test [8] it was 1.3 µg/mL (≈ 0.732 µM). Further, the values for the MIC in [12] and in test [13] were 2.2 µg/mL (≈ 1.24 µM) and 0.35 µg/mL (≈ 0.197 µM), respectively. For the same compound, the half-inhibitory concentration (IC50) in test [5] came to 0.31 µg/mL (≈ 0.174 µM); in test [6], 0.24 µg/mL (≈ 0.135 µM); in test [14], 0.2 nM. For the same compound, the ED50 stood at 5.2 mg/kg in test [9] and 0.08 mg/kg in [10]. Also, the Observed at in test [11] worked out at 100 µg/mL.
